Experimental data reported in US6589773B1, “Methods and compositions for a modified yeast strain with increased permeability and uses thereof” (priority 2000, dated 2003).
≈ marks a conversion by molar mass, not a printed value.

What was measured:
[1] = test system: modified strains SKY54 and SKY197; experiment: Yeast strain sensitivity to selected compounds (top-agar death zones / MIC), modified strains; assay type: cell-based, S. cerevisiae; conditions: for change of sensitivity on induction of HXT9 and HXT11 expression: Gal/Raff containing media; for sensitivity relative to parental strains SKY48 and SKY191, based on the size of the death zones: YPD media, same concentration
Method: As used herein, “hyperpermeable” yeast cells or a “hyperpermeable” yeast strain, are yeast cells and strains which have an increased sensitivity to one or more test compounds, relative to the sensitivity of the yeast cells and strains without the above-described insertion-disruption of genes that alter cellular permeability. Sensitivity to such compounds and small molecules is determined by measuring the MIC (minimal inhibitory concentration) of such compounds to visible growth of yeast cells, disregarding a haze of barely visible growth of such yeast cells.
(§1) Decreasing concentrations of cycloheximide, 4-nitroquinolin-oxide, sulfmethuron methyl, and Zeocin were plated on parental yeast strains SKY48 and SKY191 and the modified yeast strains SKY54 and SKY197. From top to bottom of each plate, and from left to right of each row: 5 μg, 2.5 μg, 1 μg, 0.5 μg, 0.2 μg, and 50 ng of CYH; 2.5 μg, 1.25 μg, 0.5 μg, 0.25 μg, 0.1 μg, and 25 ng of NQO; 100 μg, 50 μg, 20 μg, 10 μg, 4 μg, and 1 μg of SMM; and 100 μg, 50 μg, 20 μg, 10 μg, 4 μg, and 1 μg of Zeo.
Yeast strain sensitivity to selected compounds SKY54 and SKY197 were tested for sensitivity to various concentrations of compounds, including cycloheximide (CYH), 4-nitroquinolin-oxide (NQO), sulfmethuron methyl (SMM) and Zeocin (Zeo), relative to the sensitivity of the parental strains, SKY48 and SKY191 to these compounds. Yeast cells were propagated on YPD or YPG/R plates in top-agar layer containing 1% of low melt SeaPlaque agarose and YPD or YPG/R growth media with glucose or galactose as the carbon source. CYH (5 mg/ml), NQO (2.5 mg/ml), SMM (100 mg/ml) and Zeo (100 mg/ml) stock solutions were diluted 2, 5, 10, 25, and 100-fold, and applied on top-agar growing yeast by means of prone device. Sensitivity to various concentrations of compounds was scored by visualization of growth on this media, and the size of “death zones” of sensitive colonies. Thus, the plates shown in FIG. 15 show the sensitivity of the parental and modified yeast strains to, from top to bottom of each plate, and from left to right of each row, 5 μg, 2.5 μg, 1 μg, 0.5 μg, 0.2 μg, and 50 ng of CYH; 2.5 μg, 1.25 μg, 0.5 μg, 0.25 μg, 0.1 μg, and 25 ng of NQO; 100 μg, 50 μg, 20 μg, 10 μg, 4 μg, and 1 μg of SMM; and 100 μg, 50 μg, 20 μg, 10 μg, 4 μg, and 1 μg of Zeo. […] When SKY54 and SKY197 were incubated on Gal/Raff containing media, thereby inducing expression of HXT9 and HXT11 genes, the sensitivity to CYH and 4-NQO increased. The estimated increase of death zone diameters for 4-NQO for SKY54 and SKY 197 on Gal/Raff media in comparison with the parental strains grown on the same media was ˜32-40%. After 48 hours of incubation on Gal/Raff media, sensitivity to CYH was estimated to be 0.01 μg/ml MIC (minimal inhibitory concentration). The MIC is defined as the lowest concentration (micrograms per milliliter of broth) that inhibited visible growth, disregarding a haze of barely visible growth. Sensitivity to CYH of a yeast strain harboring PDR1 and PDR3 deletions, and the HXT11 gene overexpressed from a multicopy plasmid, was previously reported as having an MIC of 0.03 μg/ml CYH (Nourani et al., 1997, Mol. Cell. Biol. 17:5453-5460). […] A comparative analysis of parental strain SKY48 and obtained SKY54 to 73,400 compounds from the SMT chemical library is shown in Table 2. SKY48 is sensitive to 1,959 compounds while SKY54 is sensitive to 3,011 compounds. Thus, SKY54 was sensitive to 154% as many compounds as the parental strain, SKY48.

[2] = test system: yeast strain harboring PDR1 and PDR3 deletions, and the HXT11 gene overexpressed from a multicopy plasmid; conditions: previously reported, Nourani et al., 1997; cited from earlier work
[3] = test system: parental strains SKY48 and SKY191; experiment: Yeast strain sensitivity to selected compounds (top-agar death zones), parental strains; assay type: cell-based, S. cerevisiae; conditions: all concentrations tested (100 μg to 1 μg)
Method: as §1
SKY48 and SKY191 parental strains The parent strains SKY48 and SKY 191 (MATαtrp1 URA3 his3 lexAop-LEU2 cIop-LYS2), with 6 or 2 lexA operators upstream of LEU2, respectively, have been described (Serebriiskii et al., 1999, J. Biol. Chem. 274:17080-17087, which is incorporated herein by reference in its entirety).
Yeast strain sensitivity to selected compounds SKY54 and SKY197 were tested for sensitivity to various concentrations of compounds, including cycloheximide (CYH), 4-nitroquinolin-oxide (NQO), sulfmethuron methyl (SMM) and Zeocin (Zeo), relative to the sensitivity of the parental strains, SKY48 and SKY191 to these compounds. […] Sensitivity to various concentrations of compounds was scored by visualization of growth on this media, and the size of “death zones” of sensitive colonies. […]

SMILES: O=[N+]([O-])c1cc[n+]([O-])c2ccccc12 [4-NQO, 4-nitroquinolin-oxide]
- change of sensitivity on induction of HXT9 and HXT11 expression [1]: increased
- estimated increase of death zone diameters in comparison with the parental strains ([1]; Gal/Raff media, parental strains grown on the same media): 32-40%
- sensitivity relative to parental strains SKY48 and SKY191, based on the size of the death zones [1]: significantly more sensitive

SMILES: C[C@@H]1C[C@@H]([C@H](O)CC2CC(=O)NC(=O)C2)C(=O)[C@@H](C)C1 [CYH, cycloheximide]
- MIC [2]: 0.03 µg/mL (≈ 0.107 µM)
- change of sensitivity on induction of HXT9 and HXT11 expression [1]: increased
- MIC ([1]; Saccharomyces cerevisiae, SKY54ANDSKY197, 48 h, read-out: MIC (minimal inhibitory concentration)): 0.01 µg/mL (≈ 0.0355 µM)
- sensitivity relative to parental strains SKY48 and SKY191, based on the size of the death zones [1]: significantly more sensitive

SMILES: COC(=O)c1ccccc1S(=O)(=O)NC(=O)Nc1nc(C)cc(C)n1 [SMM, sulfmethuron methyl]
- sensitivity (growth, size of death zones) [3]: no sensitivity
- sensitivity (growth, size of death zones) ([1]; SKY54 and SKY197, all concentrations tested (100 μg to 1 μg)): no sensitivity
